# From ChEMBL document CHEMBL1151671, “Cytotoxic oxygenated desmosterols of the red alga Galaxaura marginata” (1996)
# Legend:
# Type in all cases: functional
# Conditions in all cases: read-out: ED50 (the source's name)
# P388 = experiment: Cytotoxicity against mouse P388 cells by MTT assay
# KB = experiment: Cytotoxicity against human KB cells by MTT assay
# A549 = experiment: Cytotoxicity against human A549 cells by MTT assay
# HT-29 = experiment: Cytotoxicity against human HT29 cells by MTT assay
Compound,EC50 (P388),EC50 (KB),EC50 (A549),EC50 (HT-29)
C=C(C)C(CC[C@@H](C)[C@H]1CC[C@H]2[C@@H]3CC=C4C[C@@H](O)CC[C@]4(C)[C@H]3CC[C@]12C)OO (stereo partly specified),0.26 mg/L,0.33 mg/L,0.64 mg/L,0.43 mg/L
C=C(C)C(O)CC[C@@H](C)[C@H]1CC[C@H]2[C@@H]3CC=C4C[C@@H](O)CC[C@]4(C)[C@H]3CC[C@]12C (stereo partly specified),0.36 mg/L,0.67 mg/L,1.61 mg/L,0.37 mg/L
C[C@H](C/C=C/C(C)(C)O)[C@H]1CC[C@H]2[C@@H]3CC=C4C[C@@H](O)CC[C@]4(C)[C@H]3CC[C@]12C,0.15 mg/L,0.61 mg/L,1.08 mg/L,0.6 mg/L
CC(C)=CCC[C@@H](C)[C@H]1CC[C@H]2[C@@H]3CC=C4C[C@@H](O)CC[C@]4(C)[C@H]3CC[C@]12C [DESMOSTEROL],33.5 mg/L,> 50 mg/L,> 50 mg/L,> 50 mg/L
C[C@H](CCC1OC1(C)C)[C@H]1CC[C@H]2[C@@H]3C[C@@H](O)C4=CC(=O)CC[C@]4(C)[C@H]3CC[C@]12C (mixture of isomers),0.75 mg/L,0.3 mg/L,3.14 mg/L,0.87 mg/L
C[C@H](C/C=C/C(C)(C)OO)[C@H]1CC[C@H]2[C@@H]3CC=C4C[C@@H](O)CC[C@]4(C)[C@H]3CC[C@]12C,0.22 mg/L,,,
